The values below come from publication PMC6017732, “Identification and Characterizations of Novel, Selective Histone Methyltransferase SET7 Inhibitors by Scaffold Hopping- and 2D-Molecular Fingerprint-Based Similarity Search” (Molecules : A Journal of Synthetic Chemistry and Natural …, 2018).

The structures appear in SMILES notation. Like-named read-outs stand apart in the source and are kept apart here.

Assay [1] concerns the target T1, SET7 (Homo sapiens, UniProt Q8WTS6).
T1 sequence (Q8WTS6 1-366): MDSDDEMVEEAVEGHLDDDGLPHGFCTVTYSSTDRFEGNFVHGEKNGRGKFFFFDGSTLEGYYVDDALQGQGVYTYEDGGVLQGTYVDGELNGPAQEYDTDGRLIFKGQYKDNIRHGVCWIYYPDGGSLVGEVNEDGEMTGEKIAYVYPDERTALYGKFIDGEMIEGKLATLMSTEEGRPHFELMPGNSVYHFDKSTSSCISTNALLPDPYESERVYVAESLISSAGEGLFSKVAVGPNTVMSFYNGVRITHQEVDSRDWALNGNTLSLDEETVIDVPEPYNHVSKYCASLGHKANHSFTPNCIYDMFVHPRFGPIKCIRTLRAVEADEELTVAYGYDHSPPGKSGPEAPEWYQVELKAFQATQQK
Briefly: 3H-labeled radioisotope methylation assay. Particulars: 3H radioactive methylation assay. Type of assay: biochemical. Here is the method:
As for ^3Hradioactive methylation assay, SAH was used as the reference compound and the compounds were tested in 10 concentrations in duplicate in modified Tris buffer (1× assay buffer). The following materials were purchased: SET7 (Enzo, Cat. No. ALX-201-178, New York, NY, USA), [^3H]-SAM (PerkinElmer Inc., Lot. No. 1790854), SAH (Sigma, Cat. No. A9384-25MG, St. Louis, MO, USA) and 384-well Flashplate (Perkin Elmer, Cat. No. SMP410A001PK,). The compounds were transferred to the assay plate by Echo 550 with 3-fold dilution in 100% DMSO where the final DMSO concentration is 1%. Then the enzyme solution was transferred to the assay plate and 1× assay buffer was transferred for low control. After 15 min incubation at room temperature, peptide and [^3H]-SAM mix solution was transferred to each well to start the reaction. The cold SAM in 1× buffer was added to each well to stop the reaction after 60 min incubation at room temperature. 25 μL of the whole reaction system per well was transferred to Flashplate which was washed with dH2O and 0.1% Tween-20 for three times after 60 min incubation. The data was read on Microbeta. All the inhibition assays are performed in duplicate.

For another assay, the target named is T2, SMYD2 (Homo sapiens, UniProt Q9NRG4).
T2 construct: purchased Active Motif 31323
The assay can be described thus: Enzymatic selectivity assay SMYD2 (Alpha mode). Type of assay: biochemical. Particulars: SMYD2, 100 μM; read-out: Inhibition Ratio at 100 μM/%. Here is the method: (§1) For SETD1B, G9a and SMYD2, the activities against those targets were tested in modified Tris buffer (1× assay buffer). All the solid compounds were dissolved to 20 mM in 100% DMSO. The materials used were SETD1B (Active Motif, Cat. No. M1083, Carlsbad, CA, USA), G9a (BPS, Cat. No. 51001, San Diego, CA, USA), […] and 384-well plate (Perkin Elmer, Cat. No. 6007299). Both the enzyme solution and the substrate solution were prepared in 1× assay buffer enzyme solution or 1× assay buffer for low control was transferred to the assay plate. Then substrate mix solution was added to each well to start the solution for 15 min incubation at room temperature. For SETD1B, G9a, the incubation time was adjusted to 60 min and for SMYD2, the incubation time was set to 240 min. For detection, acceptor and donor beads were added and incubated for 60 min at room temperature, shielded from light. The endpoint was evaluated with EnSpire in Alpha mode.

Assay [2] deals with T1, SET7. Briefly: AlphaLISA SET7 inhibition assay. It is filed as biochemical. Particulars: for IC50: SET7; for inhibition at 100 µM: read-out: Inhibition Ratio at 100 μM/%. Here is the method:
AlphaLISA assays were applied to determine the inhibitory activity targeting SET7. The purified SET7 protein was incubated in modified Tris buffer in 384-well plates (Perkin Elmer, Cat. No. 6007299, Waltham, MA, USA) at room temperature for 15 min. The compounds were transferred to the assay plate using Echo in 100% DMSO, and substrate solution was added to each well to start the reaction. Acceptor and donor beads were added and incubated for 60 min at room temperature, shielded from light. The endpoint was evaluated with EndSpire in Alpha mode. The experimental data was fitted in GraphPad Prism 5 to obtain inhibition values using the equation as follows:(1) Inhibition %= Max−Siginal/Max−Min×100%

Another assay addresses T3, SETD1B (Homo sapiens, UniProt Q9UPS6).
T3 construct: purchased Active Motif M1083
The assay can be described thus: Enzymatic selectivity assay SETD1B (Alpha mode). It is filed as biochemical. Particulars: read-out: Inhibition Ratio at 100 μM/%. As for the experimental part: as §1

The next assay addresses EZH2 (Homo sapiens, UniProt Q15910). Briefly: Radioactive methylation inhibition assay of EZH2. Type of assay: biochemical. Particulars: EZH2, 100 μM. Here is the method: The radioactive methylation inhibition assay of EZH2 was performed in modified Tris buffer. H3K27me peptide and [^3H]-SAM (Perkin Elmer Inc. Waltham, MA, USA, Lot. No. 1731619) were added in 1x buffer as the substrate solution. The […] solution was incubated at room temperature for 15 min before substrate solution was added to each well to start the reaction. Cold SAM (Sigma, Cat. NO. 7007) was added in 1× buffer to prepare stop mix (final concentration 0.5 mM), and was added to stop the reaction; finally 25 μL of the reaction system was transferred to a FlashPlate (Perkin Elmer, Cat. No. SMP410A001PK) and incubated at room temperature for a minimum of 1 h. The plate was washed three times with dH2O and 0.1% Tween-20, and the radioactivity was determined by liquid scintillation counting (MicroBeta). GSK-126 was used as the reference compound.

The target of another assay is T4, G9a (Homo sapiens, UniProt Q96KQ7).
T4 construct: purchased BPS 51001
T4 sequence (Q96KQ7 785-1210 limits assumed): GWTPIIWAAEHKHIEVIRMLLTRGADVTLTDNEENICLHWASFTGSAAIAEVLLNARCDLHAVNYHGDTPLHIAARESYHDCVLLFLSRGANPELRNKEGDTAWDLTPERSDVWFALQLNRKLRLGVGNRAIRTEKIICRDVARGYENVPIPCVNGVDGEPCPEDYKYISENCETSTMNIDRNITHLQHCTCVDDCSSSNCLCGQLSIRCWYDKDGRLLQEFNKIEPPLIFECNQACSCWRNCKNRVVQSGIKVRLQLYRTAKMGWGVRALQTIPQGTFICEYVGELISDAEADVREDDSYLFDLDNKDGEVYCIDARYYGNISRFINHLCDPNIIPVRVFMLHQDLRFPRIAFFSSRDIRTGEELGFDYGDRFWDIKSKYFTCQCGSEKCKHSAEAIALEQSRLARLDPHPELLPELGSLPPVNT
Briefly: Enzymatic selectivity assay G9a (Alpha mode). It is filed as biochemical. The note with it: read-out: Inhibition Ratio at 100 μM/%. Here is the method: as §1

In a further assay the target is T5, SETD8 (Homo sapiens, UniProt Q9NQR1).
T5 sequence (Q9NQR1 1-393): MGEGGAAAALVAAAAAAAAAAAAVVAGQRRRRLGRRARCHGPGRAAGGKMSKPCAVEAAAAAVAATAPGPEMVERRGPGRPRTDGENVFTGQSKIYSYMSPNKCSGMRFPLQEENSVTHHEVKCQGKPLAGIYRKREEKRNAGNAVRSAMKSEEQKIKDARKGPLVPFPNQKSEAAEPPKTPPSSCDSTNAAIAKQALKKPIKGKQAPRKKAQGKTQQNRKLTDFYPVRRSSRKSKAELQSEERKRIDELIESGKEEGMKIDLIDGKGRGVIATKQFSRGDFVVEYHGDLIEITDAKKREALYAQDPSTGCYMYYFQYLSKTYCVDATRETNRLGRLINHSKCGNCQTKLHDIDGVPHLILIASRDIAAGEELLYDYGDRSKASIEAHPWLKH
Briefly: Radioactive methylation inhibition assay of SETD8. It is filed as biochemical. The note with it: SETD8, 100 μM; read-out: Inhibition Ratio at 100 μM/%. As for the experimental part: The radioactive methylation inhibition assay of SETD8 was performed in modified Tris buffer. […] and [^3H]-SAM (PerkinElmer, Cat No. NET1551MC) were added in 1x buffer as the substrate solution. The enzyme solution was incubated at room temperature for 15 min before substrate solution was added to each well to start the reaction. Cold SAM (Sigma, Cat. No. 7007-100MG) was added in 1x buffer to prepare the stop mix, and was added to stop the reaction; finally 10 μL of the reaction system was transferred to flashplate (PerkinElmer Inc., Cat. No. SMP410A001PK) and incubated at room temperature for a minimum of 2 h. The plate was washed three times with dH2O and 0.1% Tween-20, and the radioactivity signal was detected by liquid scintillation counting (MicroBeta, PerkinElmer). SAH was used as the reference compound.

Assay [3] relates to Jurkat leukemia cell line. The assay can be described thus: Cell viability assay (alamarBlue / MTT), Jurkat. It is filed as cell-based. The note with it: Homo sapiens, 72 h, approximately 72 h. Here is the method: (§2) MCF7, HL60, MV4-11, K562, Kasumi-1, U937, THP1, and Jurkat cell lines were purchased from American Type Culture Collection (Manassas, VA, USA). Fetal bovine serum was purchased from Life Technologies. MCF7 cells were cultured in DMEM medium supplemented with 10% fetal bovine serum at 37 °C in an incubator with 5% CO2 atmosphere. HL60 and MV4-11 cells were cultured in 1640 medium supplemented with 10% fetal bovine serum. K562, Kasumi-1 and HL60 were cultured in 96 plate at 10,000/well for 2 h. DC-S285 was dissolved in DMSO (Sigma) and then stored at 4 °C. The cells were incubated with DC-S285 at different concentrations ranging from 0 to 100 µM for approximately 72 h. The activities of […] against MCF7, HL60, MV4-11, K562, Kasumi-1, U937, THP1, and Jurkat were measured by the alamarBlue assays and MTT assays.
(Alamar Blue is a resazurin reagent that responds to reducing activity.)

The subject of a further assay is U937 leukemia cell line. Briefly: Cell viability assay (alamarBlue / MTT), U937. It is filed as cell-based. Particulars: Homo sapiens, U-937, 72 h, U937, approximately 72 h. Here is the method: as §2
Assay [4] concerns the target T6, SET7 (Homo sapiens, UniProt Q8WTS6).
T6 sequence (Q8WTS6 117-366 limits assumed): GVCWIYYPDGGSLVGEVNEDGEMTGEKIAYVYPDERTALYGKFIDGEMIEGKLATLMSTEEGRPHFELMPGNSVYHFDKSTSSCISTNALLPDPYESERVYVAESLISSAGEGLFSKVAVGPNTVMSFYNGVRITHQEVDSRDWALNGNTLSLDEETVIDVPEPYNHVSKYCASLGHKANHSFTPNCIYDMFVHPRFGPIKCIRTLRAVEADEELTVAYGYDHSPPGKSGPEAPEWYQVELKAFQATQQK
Briefly: Ligand observed T1rho (CPMG) NMR experiment. Type of assay: binding. The note with it: 20 μM compound, 2.5 μM SET7. Here is the method: Ligand observed T1ρ NMR experiment were applied to investigate ligand-protein interactions. All NMR spectra were acquired at 25 °C on a 600 MHz Bruker Avance III spectrometer equipped with a cryogenically cooled probe (Bruker Biospin, Ettlingen, Germany). Samples containing 20 μM DC-S285, and 20 μM DC-S285 in the presence of 2.5 μM SET7 were dissolved in Tris-HCl buffer (50 mM Tris-HCl, 100 mM NaCl, pH 7.4, 5% DMSO, 95% D2O) and then used in NMR data acquisition. T1ρ spectra were recorded by using the pulse sequence of solvent-suppressed ^1D ^1H CPMG (cpmgPr1d). The 90° pulse length was adjusted to about 11.80 μs. A total of four dummy scans and 64 free induction decays (FIDs) were collected into 64 K acquisition points, covering a spectral width of 12 kHz (20 ppm) and giving an acquisition time (ACQ) of 2.73 s. STD data was acquired using 4 dummy scans and a relaxation delay of 3 s, followed by a 40 dB pulsed irradiation at frequency of −1.0 ppm or 33 ppm alternatively. The total acquisition time for STD spectrum was 23 min with 128 FIDs.

The next assay has as its system THP1 leukemia cell line. Briefly: Cell viability assay (alamarBlue / MTT), THP1. Particulars: Homo sapiens, THP-1, 72 h, THP1, approximately 72 h. It is filed as cell-based. Here is the method: as §2
Assay [5] deals with MCF7 (breast cancer) cells. Briefly: Cell viability assay (alamarBlue / MTT), MCF7. Type of assay: cell-based. The note with it: Homo sapiens, MCF7, 72 h, MCF7, approximately 72 h. As for the experimental part:
as §2

Chain of EZH2 (Q15910 whole entry, species assumed): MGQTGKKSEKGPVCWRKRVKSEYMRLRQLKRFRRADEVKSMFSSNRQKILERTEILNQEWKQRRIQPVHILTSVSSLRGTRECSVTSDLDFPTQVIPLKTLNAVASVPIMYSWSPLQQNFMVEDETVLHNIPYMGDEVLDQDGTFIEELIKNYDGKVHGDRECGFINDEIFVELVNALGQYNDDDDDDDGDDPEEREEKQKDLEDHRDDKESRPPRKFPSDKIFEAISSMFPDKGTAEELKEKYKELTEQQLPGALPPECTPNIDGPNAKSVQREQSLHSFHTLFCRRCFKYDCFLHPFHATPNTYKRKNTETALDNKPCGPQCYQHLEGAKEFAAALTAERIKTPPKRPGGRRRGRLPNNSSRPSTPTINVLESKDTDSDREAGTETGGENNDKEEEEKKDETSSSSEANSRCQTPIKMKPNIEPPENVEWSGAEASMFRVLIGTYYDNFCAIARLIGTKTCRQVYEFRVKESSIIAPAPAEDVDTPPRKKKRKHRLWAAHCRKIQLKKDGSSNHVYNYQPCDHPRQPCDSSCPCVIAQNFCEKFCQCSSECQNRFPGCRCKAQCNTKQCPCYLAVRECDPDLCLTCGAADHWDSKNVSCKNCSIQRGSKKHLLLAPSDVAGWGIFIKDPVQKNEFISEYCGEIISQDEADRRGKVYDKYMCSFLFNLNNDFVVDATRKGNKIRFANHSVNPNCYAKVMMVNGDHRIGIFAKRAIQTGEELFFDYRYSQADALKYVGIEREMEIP
Chain of EZH2 (O75530 whole entry partner, species assumed): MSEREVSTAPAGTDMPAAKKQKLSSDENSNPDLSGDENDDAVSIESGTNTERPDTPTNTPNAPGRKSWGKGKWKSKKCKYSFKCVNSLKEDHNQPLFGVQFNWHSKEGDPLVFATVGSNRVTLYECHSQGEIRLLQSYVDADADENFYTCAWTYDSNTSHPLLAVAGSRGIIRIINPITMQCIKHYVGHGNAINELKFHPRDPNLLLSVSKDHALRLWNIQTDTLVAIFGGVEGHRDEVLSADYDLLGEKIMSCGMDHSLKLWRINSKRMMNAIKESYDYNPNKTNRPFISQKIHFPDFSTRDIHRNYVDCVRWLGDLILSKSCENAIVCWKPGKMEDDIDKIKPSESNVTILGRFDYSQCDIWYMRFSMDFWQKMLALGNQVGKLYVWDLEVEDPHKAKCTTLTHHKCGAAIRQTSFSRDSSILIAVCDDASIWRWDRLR
Chain of EZH2 (Q15022 whole entry partner, species assumed): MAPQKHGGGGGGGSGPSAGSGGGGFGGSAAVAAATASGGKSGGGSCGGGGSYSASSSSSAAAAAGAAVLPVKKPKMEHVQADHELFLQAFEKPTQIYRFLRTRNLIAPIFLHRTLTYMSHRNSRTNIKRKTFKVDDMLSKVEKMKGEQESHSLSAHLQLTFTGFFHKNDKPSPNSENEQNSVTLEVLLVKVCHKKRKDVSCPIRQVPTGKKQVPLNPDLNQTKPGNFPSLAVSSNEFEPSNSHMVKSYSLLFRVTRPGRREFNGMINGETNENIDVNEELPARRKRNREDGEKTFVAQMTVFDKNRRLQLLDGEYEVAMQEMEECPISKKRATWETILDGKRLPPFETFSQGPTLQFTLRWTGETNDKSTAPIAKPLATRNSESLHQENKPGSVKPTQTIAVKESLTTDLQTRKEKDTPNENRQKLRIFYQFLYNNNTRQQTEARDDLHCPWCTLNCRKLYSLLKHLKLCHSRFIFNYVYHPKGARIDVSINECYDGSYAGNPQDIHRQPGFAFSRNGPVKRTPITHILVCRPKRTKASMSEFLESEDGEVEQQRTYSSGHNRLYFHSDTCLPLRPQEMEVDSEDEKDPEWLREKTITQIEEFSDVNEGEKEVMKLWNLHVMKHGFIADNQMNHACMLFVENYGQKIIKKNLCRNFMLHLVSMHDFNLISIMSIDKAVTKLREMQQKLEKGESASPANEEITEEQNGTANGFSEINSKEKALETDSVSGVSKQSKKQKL
T2 sequence (Q9NRG4 whole entry): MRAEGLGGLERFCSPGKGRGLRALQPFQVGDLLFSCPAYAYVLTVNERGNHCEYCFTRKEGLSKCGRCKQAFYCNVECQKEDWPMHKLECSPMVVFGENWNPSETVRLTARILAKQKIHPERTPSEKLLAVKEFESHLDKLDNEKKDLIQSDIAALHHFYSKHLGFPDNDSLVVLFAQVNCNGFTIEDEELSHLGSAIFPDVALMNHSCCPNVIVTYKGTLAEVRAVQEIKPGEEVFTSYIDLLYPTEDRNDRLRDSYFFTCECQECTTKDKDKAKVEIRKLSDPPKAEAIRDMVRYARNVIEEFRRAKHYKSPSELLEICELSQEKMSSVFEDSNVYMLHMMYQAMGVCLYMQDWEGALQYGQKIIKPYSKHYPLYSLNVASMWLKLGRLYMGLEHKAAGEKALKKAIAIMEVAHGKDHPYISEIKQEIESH

What is called IC50 is the concentration needed to halve the response being measured. On to `O=C(N/N=C/c1cc([N+](=O)[O-])ccc1Cl)c1ccc(-c2ccccc2)cc1` [DC-S303], for which the IC50 on SET7 [1] was determined as 2.9 µM; against SET7 [2] (AlphaLISA assay), 1.1 µM. Moreover, the inhibition at 100 µM on SMYD2 came to 24.6%; at SET7 [2] (AlphaLISA assay, SET7, 100 μM), 99%; on SET7 [2] (SETD7, 100 μM, selectivity panel (Table 3)) it was 90.5%; on SETD1B, 27.1%; on G9a, 52.6%; at SETD8, 55.2%. Also, the “Inhibition Ratio at 100 μM/%” value at EZH2 came out at 47.88%.

Take `COc1ccc(C(=O)N/N=C/c2ccc([N+](=O)[O-])cc2)cc1Br` [DC-S285]: the IC50 worked out at 19.5 µM on SET7 [1]; 2200 nM in [3]; 3.9 µM with U937 leukemia cell line; 9.3 µM against SET7 [2] (AlphaLISA assay); 3.5 µM in the assay on THP1 leukemia cell line; 21.4 µM in assay [5]. For the same compound, the “binding to SET7 in T1ρ (CPMG) NMR” value at SET7 [4] is “Strong binding signals”.
